{
  "source": "patent US4407795A",
  "about": "“Inclusion compound of p-hexadecylamino benzoic acid in cyclodextrin and method of use” (American Cyanamid Company, priority 1981, dated 1983)",
  "key": {"[1]": {"settings": "in vivo; cited from earlier work"}, "[2]": {"settings": "rat; cited from earlier work"}, "[3]": {"test": "Effects on arterial wall / atherosclerotic plaque", "assay_type": "in vivo"}, "[4]": {"test": "Luminal narrowing and myocardial blood flow", "assay_type": "in vivo"}, "[5]": {"system": "fatty acyl-CoA: cholesterol acyl transferase (ACAT)", "test": "Inhibition of arterial cholesterol-esterifying enzyme", "assay_type": "biochemical", "settings": "in words"}, "Serum lipoproteins": {"test": "Serum lipoproteins", "assay_type": "in vivo"}, "[6]": {"settings": "cited from earlier work"}, "[7]": {"settings": "in words; cited from earlier work"}, "[8]": {"settings": "mainly as glucose formed by enzymatic hydrolysis; cited from earlier work"}},
  "note": "“Also recorded” adds a separate entry of the source.",
  "data": [
    {"smiles": "N[C@H](Cc1cc(I)c(Oc2cc(I)c(O)c(I)c2)c(I)c1)C(=O)O", "note": "[D-thyroxine]", "values": [
      {"measurement": "lowering blood lipids", "setting": "[1]", "value": "effective to varying degrees in lowering blood lipids"}
    ]},
    {"smiles": "CCCCCCCCCCCCCCCCCC(=O)O", "note": "[stearic acid]", "values": [
      {"measurement": "bioavailability with β-cyclodextrin", "setting": "[2]", "value": "enhance the bioavailability"}
    ]},
    {"smiles": "CCOC(=O)C(C)(C)Oc1ccc(Cl)cc1", "note": "[clofibrate]", "values": [
      {"measurement": "lowering blood lipids", "setting": "[1]", "value": "effective to varying degrees in lowering blood lipids"}
    ]},
    {"smiles": "CCCCCCCCCCCCCCCCNc1ccc(C(=O)[O-])cc1.[Na+]", "note": "[p-hexadecylamino benzoic acid sodium salt]", "values": [
      {"measurement": "area and thickness of the plaque (incidence and severity of plaque formation)", "setting": "[3]; arterial wall", "value": "decrease of both the area and the thickness of the plaque"},
      {"measurement": "deposition of collagen and elastin", "setting": "[3]; arterial wall", "value": "reduction of deposition of connective-tissue collagen and elastic-fiber elastin"},
      {"measurement": "formation of the extracellular matrix and trapping of very low-density lipoproteins", "setting": "[3]; arterial wall", "value": "lowering of the formation of the extracellular matrix and its trapping of very low-density lipoproteins"},
      {"measurement": "immobilization of cholesterol in the form of ester", "setting": "[3]; arterial wall", "value": "decreased immobilization of cholesterol in the form of ester"},
      {"measurement": "smooth-muscle cell proliferation", "setting": "[3]; arterial wall", "value": "decreased smooth-muscle cell proliferation"},
      {"measurement": "calcium deposition", "setting": "[3]; arterial wall / plaque, sodium salt", "value": "reduced calcium deposition; also recorded: minimizes the calcium deposition in the plaque"},
      {"measurement": "progression of atherosclerosis", "setting": "[3]; in words", "value": "inhibit the progression of atherosclerosis"},
      {"measurement": "reduction in the luminal narrowing", "setting": "[4]; 4 major coronary arteries", "value": 2, "unit": "fold"},
      {"measurement": "luminal narrowing in major peripheral arteries", "setting": "[4]; major peripheral arteries", "value": "Reductions in luminal narrowing are seen in major peripheral arteries as well"},
      {"measurement": "myocardial blood flow", "setting": "[4]; non-stressed and stressed heart", "value": "increases in myocardial blood flow in the non-stressed and the stressed heart"},
      {"measurement": "inhibition of arterial cholesterol-esterifying enzyme (ACAT)", "setting": "[5]", "value": "inhibited by this compound"},
      {"measurement": "high-density lipoprotein in the serum, increase", "setting": "Serum lipoproteins; in vivo", "value": 2, "unit": "fold"},
      {"measurement": "HDL concentrations", "setting": "Serum lipoproteins; in words", "value": "elevates HDL concentrations"},
      {"measurement": "very low-density lipoproteins", "setting": "Serum lipoproteins; in words", "value": "antiatherogenic decrease in the atherogenic very low-density lipoproteins"}
    ]},
    {"smiles": "O=C(O)c1ccccc1O", "note": "[salicylic acid]", "values": [
      {"measurement": "bioavailability in man as β-cyclodextrin inclusion compound", "setting": "[6]", "value": "increased bioavailability"}
    ]},
    {"smiles": "OC[C@H]1O[C@@H]2O[C@H]3[C@H](O)[C@@H](O)[C@@H](O[C@H]4[C@H](O)[C@@H](O)[C@@H](O[C@H]5[C@H](O)[C@@H](O)[C@@H](O[C@H]6[C@H](O)[C@@H](O)[C@@H](O[C@H]7[C@H](O)[C@@H](O)[C@@H](O[C@H]8[C@H](O)[C@@H](O)[C@@H](O[C@H]1[C@H](O)[C@H]2O)O[C@@H]8CO)O[C@@H]7CO)O[C@@H]6CO)O[C@@H]5CO)O[C@@H]4CO)O[C@@H]3CO", "note": "[β-cyclodextrin]", "values": [
      {"measurement": "toxicity", "setting": "[7]", "value": "lack of toxicity"},
      {"measurement": "absorbed by man upon oral administration", "setting": "[8]", "value": "less than 0.01%"}
    ]},
    {"smiles": "COc1ccc2c(c1)c(CC(=O)O)c(C)n2C(=O)c1ccc(Cl)cc1", "note": "[Indomethacin]", "values": [
      {"measurement": "bioavailability with β-cyclodextrin", "setting": "[2]", "value": "enhance the bioavailability"}
    ]},
    {"smiles": "O=C(O)c1cccnc1", "note": "[nicotinic acid]", "values": [
      {"measurement": "lowering blood lipids", "setting": "[1]", "value": "effective to varying degrees in lowering blood lipids"}
    ]}
  ]
}
